Laboratory results taken from patent publication US10343977B2, “Tetrahydro-isohumulone derivatives, methods of making and using” (KINDEX PHARMACEUTICALS, INC., priority 2012, dated 2019).

Columns and labels:
[1] = tested on: LPS-mediated inflammatory mediators in RAW264.7 and THP-1 cells; experiment: Mean inhibition across all six inflammatory mediators; format: cell-based; settings: 12.5 μM test compound
Protocol: (§1) The effect of the THIAA derivatives on LPS-mediated prostaglandin E2 (PGE2) and nitric oxide (NO) production was evaluated in a RAW264.7 murine macrophage model. The RAW 264.7 cell line was purchased from ATCC (Manassas, Va.) and maintained according to their instructions. Cells were grown and subcultured in 96-well plates at a density of 8×10^4 cells per well, and reached 80-90% confluence the next day. THIAA derivatives were added to the cells in serum-free medium at a final concentration of 0.1% DMSO. Following one hour of incubation with the THIAA derivatives, LPS (1 μg/ml) or DMEM medium alone was added to the cells and incubation was continued for 6 hours. Stimulation of RAW 264.7 cells with LPS (1 μg/ml) for 6 hours activated the production of PGE2 and NO. Supernatant media was collected for measurement of PGE2 levels. For NO, incubations were continued overnight. Supernatant media was collected for measurement of NO levels after 16 hours of stimulation. PGE2 levels were measured using assay kits from Assay Designs, (Ann Arbor, Mich.) and NO levels were measured using assay kits from Cayman Chemicals (Ann Harbor, Mich.).
(§2) The effect of the THIAA derivatives on LPS-mediated MMP-9, IL-1β, ([…], MCP-1, RANTES, and MIP-1α was evaluated in THP-1 cells. Stimulation of THP-1 cells with LPS (1 μg/ml) activated the production of MMP-9, IL-1β, MCP-1, RANTES, and MIP-1α.
(§3) Results are summarized in Table 2, with data represented as % inhibition of inflammatory mediator production.
Mean inhibition across all six inflammatory mediators was calculated for each of the THIAA derivatives.

[2] = tested on: LPS-mediated MIP-1α production in THP-1 cells; experiment: LPS-mediated MIP-1α production in THP-1 cells; format: cell-based; settings: Homo sapiens; 12.5 μM test compound; THP-1 cells, LPS 1 μg/ml; NI = no inhibition
Protocol: (§4) THIAA derivatives synthesized in Examples 1-19 were dissolved in dimethyl sufoxide (DMSO) and stored at −20° C. LPS was purchased from Sigma Chemicals (St. Louis, Miss.).
as §2, §3

[3] = tested on: LPS-mediated RANTES production in THP-1 cells; experiment: LPS-mediated RANTES production in THP-1 cells; format: cell-based; settings: Homo sapiens; 12.5 μM test compound; THP-1 cells, LPS 1 μg/ml; NI = no inhibition
Protocol: as §4, §2, §3

[4] = tested on: LPS-mediated MCP-1 production in THP-1 cells; experiment: LPS-mediated MCP-1 production in THP-1 cells; format: cell-based; settings: Homo sapiens; 12.5 μM test compound; THP-1 cells, LPS 1 μg/ml; NI = no inhibition
Protocol: as §4, §2, §3

PPARα = target: T1, PPARα (Homo sapiens, UniProt Q07869); experiment: PPARα reporter assay (INDIGO Biosciences); format: cell-based; settings: 12.5 μM test compound, luciferase reporter cells, 20 hours, activity compared to GW590735
T1 sequence (Q07869 1-468): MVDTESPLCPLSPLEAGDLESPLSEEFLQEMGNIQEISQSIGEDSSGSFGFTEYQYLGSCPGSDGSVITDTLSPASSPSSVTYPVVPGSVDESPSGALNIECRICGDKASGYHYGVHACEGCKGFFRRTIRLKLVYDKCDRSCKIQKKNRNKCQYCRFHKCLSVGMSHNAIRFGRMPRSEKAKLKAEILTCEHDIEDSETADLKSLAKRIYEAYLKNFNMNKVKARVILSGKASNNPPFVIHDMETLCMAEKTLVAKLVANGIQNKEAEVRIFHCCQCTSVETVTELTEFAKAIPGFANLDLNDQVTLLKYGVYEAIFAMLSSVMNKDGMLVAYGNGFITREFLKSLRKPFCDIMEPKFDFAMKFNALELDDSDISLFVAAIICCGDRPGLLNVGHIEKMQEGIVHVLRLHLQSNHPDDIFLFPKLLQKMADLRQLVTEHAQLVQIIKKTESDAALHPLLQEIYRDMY
Protocol: The functional effect of THIAA derivatives on PPARα and PPARγ activity was evaluated using a PPAR reporter assay (INDIGO Biosciences, Pa.). This assay utilizes non-human mammalian cells engineered to provide constitutive high level expression of PPARα, or PPARγ and containing a luciferase report gene specific to the appropriate PPAR. Following activation by agonist binding, PPAR induces expression of the luciferase reporter gene. Luciferase activity therefore provides a surrogate for measuring PPAR activity in agonist-treated cells.
0.1% DMSO was used as a solvent control for each assay. Plates were incubated for 20 hours in a humidified incubator at 37° C. and 5% CO2. After incubation, the cell medium was discarded and the cells were treated with 100 μL of luciferase detection reagent for 15 minutes. Plates were analyzed using a luminometer (Victor2, Perkin Elmer). Average relative light unit (RLU) and standard deviation were measured.

[5] = tested on: LPS-mediated IL-6 production in THP-1 cells; experiment: LPS-mediated IL-6 production in THP-1 cells; format: cell-based; settings: Homo sapiens; 12.5 μM test compound; THP-1 cells, LPS 1 μg/ml; NI = no inhibition
Protocol: as §4, §2, §3

[6] = tested on: LPS-mediated nitric oxide (NO) production in RAW264.7 cells; experiment: LPS-mediated NO production in RAW264.7 murine macrophage model; format: cell-based; settings: Mus musculus, RAW264.7, 16 h, 12.5 μM test compound, LPS 1 μg/ml, NI = no inhibition
Protocol: as §4, §1, §3

[7] = tested on: LPS-mediated prostaglandin E2 (PGE2) production in RAW264.7 cells; experiment: LPS-mediated PGE2 production in RAW264.7 murine macrophage model; format: cell-based; settings: Mus musculus, RAW264.7, 6 h, 12.5 μM test compound, LPS 1 μg/ml, NI = no inhibition
Protocol: as §4, §1, §3

CC(C)CCC(=O)[C@@]1(O)C(O)=C(C(=O)C(C)C)C(=O)[C@@H]1CCC(C)C [KDT100, (4S,5R)-3,4-dihydroxy-5-(3-methylbutyl)-4-(4-methylpentanoyl)-2-(2-methylpropanoyl)cyclopent-2-en-1-one]
inhibition at 12.5 µM [1]: < 20% | melting point: 49 to 50 °C | inhibition at 12.5 µM [2]: < 0% | inhibition at 12.5 µM [3]: 22% | inhibition at 12.5 µM [4]: 61% | PPARα % GW590735 (20.6 nM) (PPARα): no effect | Emax at 12.5 µM (PPARα; read-out: PPARα % GW590735 (20.6 nM)): < 5% | inhibition at 12.5 µM [5]: < 20% | inhibition at 12.5 µM [6]: < 0% | inhibition at 12.5 µM [7]: < 0%
